Data reported in patent US7056940B2, “Insecticidal 3-(2,6-disubstituted phenyl)-5-[5-arylthien-2-yl]-1,2,4-triazoles” (Dow AgroSciences LLC, priority 2001, dated 2006).

Experiments:
[1] = test system: Tobacco Budworm (Heliothis virescens); assay: Insecticidal test for tobacco budworm, treated cotton cotyledon leaf disc; format: in vivo; design: key: A: 90–100; B: 80–89; C: 70–79; D: 60–69; E: 50–59; F: less than 50; G: Inactive; details: cotton cotyledon leaf-dip, 2nd instar larvae, 5 days
[2] = test system: Beet Armyworm (Spodoptera exigua); assay: Insecticidal test for beet armyworm, treated lepidopteran diet; format: in vivo; design: key: A: 90–100; B: 80–89; C: 70–79; D: 60–69; E: 50–59; F: less than 50; G: Inactive; details: on diet surface, second-instar larvae, 5 days
Method in brief: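 Test compound formulated at 400 ppm in 2:1 acetone:tap water; 250 μL applied onto surface of modified Shorey lepidopteran diet, five cups per compound (one cup = one replicate). After solvent air-dried, one second-instar larva placed on treated diet per cup.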

[3] = test system: Cabbage Looper (Trichoplusia ni); assay: Insecticidal test for cabbage looper, treated cabbage leaf disc; format: in vivo; details: cabbage leaf-dip, 2nd instar larvae, 5 days
[4] = test system: Cotton Aphid (Aphis gossypii); assay: Insecticidal test for cotton aphid, spray on infested squash cotyledons; format: in vivo; details: 50 ppm spray, 3 days
Method in brief: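 Squash cotyledons were infested with all aphid life stages 16–20 h beforehand, then sprayed on both sides to runoff with 50 ppm compound (acetone:ethanol, 0.05% Tween 20). After 3 days at 26 °C and 40% RH, aphids were counted under a microscope, and percent control is population reduction versus untreated.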

[5] = test system: Two-spotted Spider Mite (Tetranychus urticae); assay: Insecticidal test for two-spotted spider mite, ovicide method; format: in vivo; design: key: A: 90–100; B: 80–89; C: 70–79; D: 60–69; E: 50–59; F: less than 50; G: Inactive; details: cotton leaf discs, 6 days
Method in brief: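 Cotton leaf discs (eight, 2.2 cm each) received ten adult female two-spotted spider mites, which laid eggs for 24 hours before being taken off. The discs were then set on an agar substrate and kept at 24° C. and 90% RH for 6 days to assess ovicidal control.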

[6] = test system: Sweetpotato Whitefly (Bemisia tabacia); assay: Insecticidal test for sweetpotato whitefly, spray on cotton plants; format: in vivo; design: key: A: 90–100; B: 80–89; C: 70–79; D: 60–69; E: 50–59; F: less than 50; G: Inactive; details: 200 ppm spray, 13 days, large nymphs
Method in brief: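 Five-week cotton plants trimmed to two leaves carried 2 days of whitefly oviposition, then adults were removed. Leaves were sprayed top and bottom with 200 ppm compound in water with 0.05% Tween 20 (acetone:ethanol co-solvent), four replicates. After 13 days at 28° C/60% RH, 3rd–4th instar nymphs were counted; percent control versus solvent-only sprayed plants.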

Compound | TBW: activity at 400 ppm against tobacco budworm (% control rating) [1] | BAW: activity at 400 ppm against beet armyworm (% control rating) [2] | CL: activity at 400 ppm against cabbage looper (% control rating) [3] | CA: activity at 50 ppm against cotton aphid (% control rating) [4] | SM: activity against two-spotted spider mite (% control rating) [5] | WF: activity at 200 ppm against whitefly (% control rating) [6] | melting point [°C]
Cc1c(-c2nc(-c3c(F)cccc3Cl)nn2C)csc1-c1ccc(Cl)cc1F | F (less than 50) | G | A (90–100) | A (90–100) | A (90–100) | G | 
Cc1c(-c2nc(-c3c(F)cccc3Cl)nn2C)csc1-c1ccc(Cl)c(F)c1 | G | F (less than 50) | A (90–100) | A (90–100) | A (90–100) | G | 
Cc1c(-c2nc(-c3c(F)cccc3Cl)nn2C)csc1-c1ccc(F)cc1 | F (less than 50) | G | D (60–69) | B (80–89) | B (80–89) | F (less than 50) | 
Cn1nc(-c2c(F)cccc2Cl)nc1-c1csc(-c2ccc(C(F)(F)F)cc2F)c1 | D (60–69) | A (90–100) | A (90–100) | C (70–79) | C (70–79) | F (less than 50) | 
Cc1c(-c2ccc(OC(F)(F)C(F)Br)cc2)csc1-c1nc(-c2c(F)cccc2Cl)nn1C (centres unmarked) | B (80–89) | A (90–100) | A (90–100) | A (90–100) | G | A (90–100) | 
Cc1c(-c2ccc(OC(F)(F)C(F)Cl)cc2)csc1-c1nc(-c2c(F)cccc2Cl)nn1C (centres unmarked) | B (80–89) | A (90–100) | A (90–100) | B (80–89) | C (70–79) | A (90–100) | 
Cc1c(-c2ccc(OC(F)(F)C(F)C(F)(F)F)cc2)csc1-c1nc(-c2c(F)cccc2Cl)nn1C (centres unmarked) | A (90–100) | A (90–100) | A (90–100) | D (60–69) | A (90–100) | A (90–100) | 
Cc1c(-c2nc(-c3c(F)cccc3Cl)nn2C)sc(Br)c1-c1ccc(OC(F)(F)C(F)Br)cc1 (centres unmarked) | F (less than 50) | A (90–100) | A (90–100) | B (80–89) | G | F (less than 50) | 
Cc1c(-c2nc(-c3c(F)cccc3Cl)nn2C)csc1-c1ccc(OC(F)(F)F)cc1 [Example 1, 3-(2-Chloro-6-fluorophenyl)-5-[4-methyl-5-(4-trifluoromethoxyphenyl)thien-3-yl]-1-methyl-1H-1,2,4-triazole] |  |  |  |  |  |  | 124 to 125
Cn1nc(-c2c(F)cccc2Cl)nc1-c1cc(-c2cccc(C(F)(F)F)c2)sc1Cl [Example 2, 3-(2-Chloro-6-fluorophenyl)-5-[2-chloro-5-(3-trifluoromethylphenyl)thien-3-yl]-1-methyl-1H-1,2,4-triazole] |  |  |  |  |  |  | 53 to 54
Cn1nc(-c2c(F)cccc2Cl)nc1-c1cc(-c2ccc(OC(F)(F)F)cc2)sc1Br [Example 3, 3-(2-Chloro-6-fluorophenyl)-5-[2-bromo-5-(4-trifluoromethoxyphenyl)thien-3-yl]-1-methyl-1H-1,2,4-triazole] |  |  |  |  |  |  | 135 to 136
Cc1sc(-c2ccc(OC(F)(F)F)cc2)cc1-c1nc(-c2c(F)cccc2Cl)nn1C [Example 4, 3-(2-Chloro-6-fluorophenyl)-5-[2-methyl-5-(4-trifluoromethoxyphenyl)thien-3-yl]-1-methyl-1H-1,2,4-triazole] |  |  |  |  |  |  | 153 to 155
Cc1c(-c2nc(-c3c(F)cccc3Cl)nn2C)csc1-c1ccc(OC(F)(F)C(F)C(F)(F)F)cc1 (centres unmarked) [Example 7, 3-(2-Chloro-6-fluorophenyl)-5-{5-[4-(1,1,2,3,3,3-hexafluoropropoxy)phenyl]-4-methylthien-3-yl}-1-methyl-1H-1,2,4-triazole] |  |  |  |  |  |  | 114 to 116
Cc1c(-c2nc(-c3c(F)cccc3Cl)nn2C)csc1-c1ccc(OC(F)(F)C(F)C(F)(F)F)cc1 (centres unmarked) [drawing 216] | A (90–100) | A (90–100) | A (90–100) | D (60–69) | B (80–89) | A (90–100) | 
Cc1c(-c2nc(-c3c(F)cccc3Cl)nn2C)csc1-c1ccc(F)cc1F [drawing 224] | D (60–69) | G | A (90–100) | A (90–100) | G | G | 
Cc1c(-c2nc(-c3c(F)cccc3Cl)nn2C)csc1-c1ccc(F)cc1F [drawing 233] | G | G | A (90–100) | B (80–89) | B (80–89) | F (less than 50) | 
